# Test results: patent US8618138B2, “Indole amide derivatives and related compounds for use in the treatment of neurodegenerative diseases” (Katholieke Universiteit Leuven, K.U. Leuven R&D, priority 2009, dated 2013)
# Columns and labels:
# M17-TAU P301L cells = test: TAU cytotoxicity assay: LDH leakage of retinoic acid incubated M17-TAU P301L cells; assay type: cell-based, human; details: Homo sapiens, 168 h, reduction of LDH activity of retinoic acid incubated M17-TAU P301L cells, 7 days
# Summary of the method: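 M17 neuroblastoma cells stably expressing human TAU P301L, seeded at 2500 cells/cm2 in Optimem with 1% FCS, then given 2.5 μM retinoic acid (stock before 1:1 addition) and grown 7 days at 37 °C. Cytotoxicity read as LDH leaked into medium; EC50 derived from these measurements.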
# [1] = test system: TAU and phospho-isoforms thereof; test: In-vivo inhibition of pathological TAU-phosphorylation, Western analysis of soluble brain protein fractions; set-up: species or system Human TAU R406W transgenic mice
# Source text: Quantification of Western analyses of TAU and phospho-TAU species of the soluble protein fraction prepared from […] of all individual mice used in this study (n=10 for each treatment group). TAU signals of all individual mice were normalized against neuron specific enolase (NSE) using antibodies (monoclonal anti-NSE antibody, clone 37E4, Abcam) to correct for possible loading control differences. The graphs depict the mean normalised TAU signals±SEM. The TAU signals were obtained by using antibodies directed against:
# (A) pan-TAU (anti-TAU monoclonal antibody (mAb) HT7, Thermo Scientific; detects all tau species independent of phosphorylation status),
# (B) phosphorylated tau on pS202, T205 (AD2 anti-TAU antibody, Biorad) and unphosphorylated tau on pS202 (anti-TAU-1 antibody, clone PC1C6, Millipore), the graph depicts the ratio of AD2/TAU-1;
# (C) phosphorylated tau on pT231 (AT180 anti-TAU mAb, Thermo Scientific), and
# (D) phosphorylated tau on pT181 (AT270 anti-TAU mAb, Thermo Scientific).
# Statistics: students two-tailed T-test*p<0.05, **p<0.01.
# Human TAU R406W transgenic mice (Zhang et al, J. of Neuroscience 24(19):4657-4667, 2004) were treated once-a-day subcutaneously for 4 weeks with compound D5 (see table 1) dissolved in arachidin oil at a dose of 35 mg/kg. Correspondingly vehicle treated transgenics were included as controls. At the end of the treatment period mice were sacrificed and brainstem was stereotactically collected. Soluble protein fractions were prepared (Terwel et al, J Biol Chem 280(5):3963-73, 2005) from the brain stem and subjected to Western analysis using antibodies directed against TAU and several different phospho-isoforms thereof.
# [2] = TAU R406W transgenic mice, 35 mg/kg subcutaneously once-a-day for 4 weeks, vs vehicle, Western blot of soluble protein fraction
smiles,measurement,setting,value
"O=C(NCCc1c[nH]c2ccc(Cl)cc12)c1cc(Cc2cc(F)ccc2F)on1 [Example D5, N-(2-(5-chloro-1H-indol-3-yl)ethyl)-5-(2,5-difluorobenzyl)isoxazole-3-carboxamide]",EC50,M17-TAU P301L cells,12 nM
same,"Phosphorylation of threonine residue 181 of TAU (AT270, FIG. 3 D)",[1]; [2],not affected
same,"TAU phosphorylated at serine 202 and tyrosine 205 (ratio AD2/TAU-1, FIG. 3 B)",[1]; [2],robust and statistically significant reduction
same,"TAU phosphorylated at tyrosine residue 231 (AT180, FIG. 3 C)",[1]; [2],robust and statistically significant reduction
same,"total TAU levels (pan-TAU, HT7 antibody, FIG. 3 A)",[1]; [2],not statistically significant affected
same,pathological TAU-species in-vivo (FIG. 3 legend),"[1]; Western analyses of TAU and phospho-TAU species, soluble protein fraction, n=10 per group",reduces pathological TAU-species in-vivo
